The values below are quoted from earlier work in the CATMoS acute toxicity set (Mansouri et al. 2021).

Values joined by “and” are separate entries in the source; they are usually repeats but may differ in a detail not shown here. Identical values can stand only once.

The nature of this data set: rat acute oral toxicity. To be noted: in vivo.
Take `Nc1ccc(C(=O)Nc2ccccc2N)cc1`: the LD50 was 95 mg/kg.
As to `O=C(O)Cc1cc(I)c(Oc2cc(I)c(O)c(I)c2)c(I)c1`, the LD50 is 0.825 mg/kg.
On to `CN(C)Cc1ccccc1`, for which the LD50 is 265 mg/kg.
For the compound `N#CC1CC=CCC1` (configuration not stated), the LD50 is 460 mg/kg.
Consider `ClCCN(Cc1ccccc1)Cc1ccccc1`, for which the LD50 was 2400 mg/kg.
On to `SCCc1cnccn1`, for which the LD50 is 158 mg/kg.
As to `Cc1cc(Cl)ccc1OCCCC(=O)O`, the LD50 was 700 mg/kg.
Consider `COc1ccc(C(=O)CCC(=O)O)c2c(C)c(C)oc12`, for which the LD50 is 2180 mg/kg.
Regarding `C1C2OC2C2C1C1CC2C2OC12` (configuration not stated), the LD50 is 210 mg/kg.
Turning to `C=CCN(CC=C)CC=C`, the LD50 is 1030 mg/kg.
Take `CCCCCCCCOC(C[n+]1ccccc1)c1ccc(C2CCCC2)cc1` (configuration not stated): the LD50 was 250 mg/kg.
On to `O=c1cc[nH]c(=O)o1`, for which the LD50 is 850 mg/kg.
As for `CN(C)S(=O)(=O)CCCCCNC(=O)N(CCCl)N=O`, the LD50 is 250 mg/kg.
Consider `ClCc1ccccn1`, for which the LD50 is 316 mg/kg.
`Nc1cc(Cl)ccc1Oc1ccc(Cl)cc1Cl`: the LD50 was 2290 mg/kg.
For `COC(CN1CCN(CCC(O)c2ccccc2)CC1)c1ccccc1` (configuration not stated), the LD50 is 640 mg/kg.
As for `Oc1cc(Cl)c(Br)cc1Cl`, the LD50 is 1350 mg/kg.
For `CN1CCC(C=C2c3ccccc3CCc3ccccc32)C1` (configuration not stated), the LD50 is 303 mg/kg.
Turning to `CCCCCCC#COC(=O)OCC`, the LD50 is 2850 mg/kg.
On to `CCCN1C(=O)C2C3C=C(C(O)(c4ccccc4)c4ccccn4)C(C3=C(c3ccccc3)c3ccccn3)C2C1=O` (configuration not stated), for which the LD50 was 34.5 mg/kg.
Regarding `CC(C)(C)CC(C)(C)SSSSCC(C)(CC(C)(C)C)SSSSC(C)(C)CC(C)(C)C` (configuration not stated), the LD50 is 3640 mg/kg.
In the case of `CCCC1(CC(=O)O)OCCc2c1[nH]c1ccccc21` (configuration not stated), the LD50 is 1420 mg/kg.
With `CCOCCC#N`, the LD50 was 3200 mg/kg.
Consider `O=C(Cl)OCc1ccccc1`, for which the LD50 was 3000 mg/kg.
In the case of `CCC(C)(C)c1ccc2c(c1)C(=O)c1ccccc1C2=O`, the LD50 is 1600 mg/kg.
Take `O=C(Cl)Oc1cccc2ccccc12`: the LD50 is 2550 mg/kg.
Consider `CN1CCOC(c2ccccc2)c2ccccc2C1` (configuration not stated), for which the LD50 was 80 mg/kg.
Consider `c1ccc2[nH]c(SN3CCCCC3)nc2c1`, for which the LD50 is 853 mg/kg.
Regarding `CNC(=O)Oc1cccc(N=CN(C)C)c1`, the LD50 is 20 mg/kg.
With `Cc1ccc2c(c1)c1c3n2CCNC3CCC1` (configuration not stated), the LD50 is 2060 mg/kg.
On to `CCC(=O)C1(N2CCCCC2)CCN(CCCC(=O)c2ccc(F)cc2)CC1`, for which the LD50 is 780 mg/kg.
On to `CCCC(C)C1(CC)C(=O)N=C(S)NC1=O` (configuration not stated), for which the LD50 was 117 mg/kg.
`O=C1N=C2c3ccccc3N=CN2C1=Cc1ccc([N+](=O)[O-])cc1`: the LD50 is 1290 mg/kg.
Consider `CC(C)(C)c1ccc(C(=O)O)cc1`, for which the LD50 is 473 mg/kg.
Turning to `NC1CCCCC1`, the LD50 was 720 mg/kg and 1650 mg/kg.
As for `O[C@@H]([C@H](O)[C@H](O)CBr)[C@H](O)CBr`, the LD50 is 1500 mg/kg.
For `CN(C)c1c(Cl)c(Cl)c(Cl)c2nc(C(F)(F)F)[nH]c12`, the LD50 is 22 mg/kg.
As to `COc1cc(Cc2cnc(N)nc2N)cc(OC)c1N(C)C`, the LD50 is 1400 mg/kg.
With `O=C(O)CCSCCC(=O)O`, the LD50 is 3000 mg/kg.
In the case of `CCCCOC(CBr)c1ccccc1` (configuration not stated), the LD50 was 250 mg/kg.
Take `O=C(O)c1ccccc1C(=O)c1ccccc1`: the LD50 is 4600 mg/kg.
Consider `Cc1ccccc1C(=O)Nc1cccc(OC(C)C)c1`, for which the LD50 is 10000 mg/kg.
`CCCCNC(=S)Nc1ccccc1`: the LD50 was 150 mg/kg.
Turning to `CCCOC(=O)c1c[n+](C)c2n(c1=O)C(C)CCC2` (configuration not stated), the LD50 was 1810 mg/kg.
For `OCC=CCO`, the LD50 is 1250 mg/kg.
Regarding `CCOP(=O)(OCC)SCCSCC`, the LD50 is 1.5 mg/kg.
Turning to `CCN1CCCC1CNC(=O)c1cc(S(=O)(=O)CC)ccc1OC` (configuration not stated), the LD50 is 2100 mg/kg.
In the case of `C=CC(=O)OCCCOCC`, the LD50 is 820 mg/kg.
Take `O=C(Cc1c[nH]c2ccccc12)NN1C(=O)CSC1=S`: the LD50 was 432 mg/kg.
Take `Fc1ccc([C@@H]2CCNC[C@H]2COc2ccc3c(c2)OCO3)cc1`: the LD50 is 415 mg/kg.
On to `Clc1cc2c(c(Cl)c1Cl)Oc1cc(Cl)c(Cl)c(Cl)c1O2`, for which the LD50 is 0.887 mg/kg.
Take `CNC(=O)Oc1ccc(NC(=O)C(F)(F)Cl)c(C)c1`: the LD50 is 48.5 mg/kg.
Regarding `CNC(=O)Oc1ccc(SC)c(C)c1`, the LD50 was 50 mg/kg.
With `Cc1sc2ccccc2c1CC1=NCCN1`, the LD50 is 74 mg/kg.
For the compound `C[N+]1(CC2COC(c3ccccc3)(c3ccccc3)O2)CCCCC1` (configuration not stated), the LD50 was 1820 mg/kg.
On to `CCCCCCCCCCCC(=O)OCC(O)CO` (configuration not stated), for which the LD50 is 52900 mg/kg.
As to `CC1=CCC2CC1(S)C2(C)C` (configuration not stated), the LD50 is 3000 mg/kg.
Take `CCNc1nc(NCC)nc(OC)n1`: the LD50 was 535 mg/kg.
For the compound `CCNC(=O)Nc1ncc([N+](=O)[O-])s1`, the LD50 is 2150 mg/kg.
`CC(C)OC(=S)S`: the LD50 is 1700 mg/kg and 1250 mg/kg.
As to `CCCCCCOC(=O)c1ccccc1C(=O)OCCCCCC`, the LD50 is 29600 mg/kg.
As for `CCCCCCCN1C(C)=CSC1=Cc1scc(C)[n+]1CCCCCCC`, the LD50 is 460 mg/kg.

The LD50 is the dose at which mortality reaches 50%.
